Experimental data from patent US10653144B2, “Pesticidal and parasiticidal vinyl isoxazoline compounds” (BOEHRINGER INGELHEIM ANIMAL HEALTH USA INC., priority 2016, dated 2020).

System: A. aegypti L1 larvae
Assay: A. aegypti L1 larvae motility dose response assay
Conditions: Aedes aegypti, 48 h, diluted LB media, 25° C., motility vs DMSO control wells
Experimental: Efficacy of Compounds Against A. aegypti Mosquitos Compounds were formulated in 100% DMSO are added to microtiter plates containing 180 μl of diluted LB media (Luria-Bertani media is a combination of tryptone, salt and yeast extract). Ten A. aegypti L1 larvae are added and the plates are incubated at 25° C. for 48 h. The efficacy of a compound is determined based on the motility of the larvae as compared to average motility of control wells containing DMSO only. A dose response assay was conducted to determine an EC50 value.

Row | Structure (SMILES) | EC50 [µM]
1 | O=C(NCCC(F)(F)F)c1ccc(/C=C/C2=NOC(c3cc(Cl)cc(C(F)(F)F)c3)(C(F)(F)F)C2)n2cncc12 (stereo not shown) [Compound 6, 5-[2-[5-[3-chloro-5-(trifluoromethyl)phenyl]-5-(trifluoromethyl)-4,5-dihydro-1,2-oxazol-3-yl]ethenyl]-N-(3,3,3-trifluoropropyl)imidazo[1,5-a]pyridine-8-carboxamide] | ≤ 20
2 | O=C(CNC(=O)c1ccc(/C=C/C2=NOC(c3cc(Cl)cc(C(F)(F)F)c3)(C(F)(F)F)C2)n2cncc12)NCC(F)(F)F (stereo not shown) [Compound 5, 2-([5-[2-[5-[3-chloro-5-(trifluoromethyl)phenyl]-5-(trifluoromethyl)-4,5-dihydro-1,2-oxazol-3-yl]ethenyl]imidazo[1,5-a]pyridin-8-yl]formamido)-N-(2,2,2-trifluoroethyl)acetamide] | ≤ 20
3 | O=C(CNC(=O)c1ccc(/C=C/C2=NOC(c3cc(Cl)cc(C(F)(F)F)c3)(C(F)(F)F)C2)c2ccccc12)NCC(F)(F)F (stereo not shown) [Compound 1, 2-([4-[2-[5-[3-chloro-5-(trifluoromethyl)phenyl]-5-(trifluoromethyl)-4,5-dihydro-1,2-oxazol-3-yl]ethenyl]naphthalen-1-yl]formamido)-N-(2,2,2-trifluoroethyl)acetamide] | ≤ 20
4 | O=C(NCCC(F)(F)F)c1ccc(/C=C/C2=NOC(c3cc(Cl)cc(C(F)(F)F)c3)(C(F)(F)F)C2)c2ccccc12 (stereo not shown) [Compound 2, 4-[2-[5-[3-chloro-5-(trifluoromethyl)phenyl]-5-(trifluoromethyl)-4,5-dihydro-1,2-oxazol-3-yl]ethenyl]-N-(3,3,3-trifluoropropyl)naphthalene-1-carboxamide] | ≤ 20
